Several values for one entry are separate records, joined by “and”; a condition that tells them apart may be missing. Equal values may be shown once. Read-outs that look alike come from different tables or passages of the source.
Tests used:
[1] = system: D type HBV in primary human hepatocytes (HBeAg); experiment: microbe, parasite or virus in culture; format: cell-based; details: Hepatitis B virus, Hepatocyte
Method in brief: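 Primary hepatocytes isolated by liver perfusion and Percoll-purified were infected with genotype D HBV one day post-seeding. Compounds were added on day 2 (7 concentrations, 3-fold dilutions, triplicate), with medium refreshed every other day. Day-8 supernatant HBeAg was measured by ELISA and expressed as % inhibition versus DMSO control.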

[2] = system: HBV rcDNA in HepDE19 cells; experiment: HepDE19 cell culture system, rcDNA quantitation using bDNA assay, MacSynergy II; format: cell-based, human hepatoma cell line
[3] = system: D type HBV in primary human hepatocytes (HBsAg); experiment: microbe, parasite or virus in culture; format: cell-based
Method in brief: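 PHHs isolated by liver perfusion and Percoll, infected with genotype D HBV on day 1; compounds added day 2 and refreshed every other day. Supernatant HBsAg on day 8 by ELISA, % inhibition vs DMSO control. Seven 3-fold concentrations in triplicate; combinations as 5×5 matrix.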

[4] = Hepatitis B virus, HepDE19, read-out: ADDITIVE INHIBITION
[5] = Hepatitis B virus, HepDE19, read-out: AVERAGE % INHIBITION (rcDNA)

CC(C)OC(=O)OCOP(=O)(CO[C@H](C)Cn1cnc2c(N)ncnc21)OCOC(=O)OC(C)C.O=C(O)/C=C/C(=O)O [TDF, tenofovir disoproxil fumarate, reference compound]
inhibition at 0.00012 µM ([1]; read-out: AVERAGE % INHIBITION HBeAg, TDF 0.12 nM alone): 7.02% | inhibition at 0.00012 µM ([1]; read-out: AVERAGE % INHIBITION HBeAg, TDF 0.12 nM alone (compound 23 study)): 4.4% | inhibition at 0.00037 µM ([1]; read-out: AVERAGE % INHIBITION HBeAg, TDF 0.37 nM alone): 6.23% | inhibition at 0.00037 µM ([1]; read-out: AVERAGE % INHIBITION HBeAg, TDF 0.37 nM alone (compound 23 study)): 6.74% | inhibition at 0.00333 µM ([1]; read-out: AVERAGE % INHIBITION HBeAg, TDF 3.33 nM alone): 11.6% | inhibition at 0.00333 µM ([1]; read-out: AVERAGE % INHIBITION HBeAg, TDF 3.33 nM alone (compound 23 study)): 9.05% | inhibition at 0.01 µM ([1]; read-out: AVERAGE % INHIBITION HBeAg, TDF 10.00 nM alone): 6.07% | inhibition at 0.01 µM ([1]; read-out: AVERAGE % INHIBITION HBeAg, TDF 10.00 nM alone (compound 23 study)): 0.72% | EC50 ([1]; read-out: Inhibitor A EC50): > 100 nM | SYNERGY PLOT (99.9%) […]. 96% [2]: 0 | inhibition at 0.004 µM ([2]; Hepatitis B virus, HepDE19): -5.27% | inhibition at 0.008 µM ([2]; Hepatitis B virus, HepDE19): 0.67% | inhibition at 0.016 µM ([2]; Hepatitis B virus, HepDE19): 2.82% | inhibition at 0.031 µM ([2]; Hepatitis B virus, HepDE19): 6.57% | inhibition at 0.063 µM ([2]; Hepatitis B virus, HepDE19): 41.7% | inhibition at 0.003906 µM [2, 4]: -5.27% | inhibition at 0.00781 µM [2, 4]: 0.67% | inhibition at 0.01563 µM [2, 4]: 2.82% | inhibition at 0.03125 µM [2, 4]: 6.57% | inhibition at 0.0625 µM [2, 4]: 41.7% | inhibition at 0.125 µM [2, 4]: 66.1% | inhibition at 0.25 µM [2, 4]: 81.5% | inhibition at 0.5 µM [2, 4]: 90.8% | inhibition at 1 µM [2, 4]: 94.5% | inhibition at 0.125 µM [2, 5]: 66.1% | inhibition at 0.25 µM [2, 5]: 81.5% | inhibition at 0.5 µM [2, 5]: 90.8% | inhibition at 1 µM [2, 5]: 94.5% | EC50 ([2]; Hepatitis B virus, HepDE19, read-out: Inhibitor B EC50): 89 nM | EC50 ([2]; Hepatitis B virus, HepDE19, rcDNA by bDNA assay, single agent, read-out: INHIBITOR B EC50): 88 nM | AVERAGE % INHIBITION (HBsAg) ([3]; 3 replicates, Compound 24 0.00 nM, TDF nM: 10.00, 3.33, 1.11, 0.37, 0.12): −3.32% and −3.31% and −6.65% and −1.28% and −3.54% | inhibition at 0.00012 µM ([3]; Hepatitis B virus, Hepatocyte, TDF 0.12 nM alone, read-out: AVERAGE % INHIBITION HBsAg): 3.39% | inhibition at 0.00037 µM ([3]; Hepatitis B virus, Hepatocyte, TDF 0.37 nM alone, read-out: AVERAGE % INHIBITION HBsAg): -0.3% | inhibition at 0.00333 µM ([3]; Hepatitis B virus, Hepatocyte, read-out: AVERAGE % INHIBITION HBsAg, TDF 3.33 nM alone): -0.9% | inhibition at 0.01 µM ([3]; Hepatitis B virus, Hepatocyte, read-out: AVERAGE % INHIBITION HBsAg, TDF 10.00 nM alone): -5.9% | EC50 ([3]; Hepatitis B virus, Hepatocyte, read-out: Inhibitor A EC50): > 100 nM | ADDITIVE INHIBITION (HBsAg) ([3]; expected from additive interaction, Compound 24 0.00 nM, TDF nM by row: r27 10.00, r28 3.33, r29 1.11, r30 0.37, r31 0.12): −6.65% and −1.28% and −3.54% and −3.32% and −3.31%

Reference: patent US20220265817A1, “THERAPEUTIC COMPOSITIONS AND METHODS FOR TREATING HEPATITIS B” (priority 2017, published 2022)
